From ChEMBL document CHEMBL3885861, “Open TG-GATES”

Organism: Rattus norvegicus
Assay: Open TG-GATES - Regimen: Single
Format: toxicity, organism-based, Sprague-Dawley
Design: regimen Single, gender Male, age 6 weeks
Details: in vivo, sc, 0 mg/kg, route subcutaneous injection, dose 0 ug/Kg, dose level Control; for APTT / Bas / Eos / Fbg / Hb / Ht / Lym / MCH / MCHC / MCV / Mono / Neu / PT / Plat / RBC / Ret / WBC: tissue Blood; for KIDNEY_L / KIDNEY_R / KIDNEY_TOTAL: tissue Kidney; for LIVER: tissue Liver; for A/G / ALP / ALT / AST / BUN / CRE / Ca / Cl / DBIL / GLC / IP / K / LDH / Na / PL / RALB / TBIL / TC / TG / TP / gamma-GTP: tissue Plasma

Compound CC(=O)O.N=C(N)NCCC[C@@H](NC(=O)[C@@H]1CCCN1C(=O)[C@@H]1CSSCCC(=O)N[C@@H](Cc2ccc(O)cc2)C(=O)N[C@@H](Cc2ccccc2)C(=O)N[C@@H](CCC(N)=O)C(=O)N[C@@H](CC(N)=O)C(=O)N1)C(=O)NCC(N)=O [DESMOPRESSIN ACETATE] has a TERMINAL_BW (3 h) of 211.5 g, an APTT (3 h) of 16.1 s and a Bas (3 h) of 0%. It also gave an Eos (3 h) of 0.8%, a Fbg (3 h) of 234.4 mg/dL and a Hb (3 h) of 12.9 g/dL. For the same compound, the Ht (3 h) was 39.7%, the Lym (3 h) was 77.8% and the MCH (3 h) was 21.7 pg. For the same compound, the MCHC (3 h) was 32.5%, the MCV (3 h) was 66.7 fL and the Mono (3 h) was 5.8%. The Neu (3 h) was 16%, the PT (3 h) was 12.1 s and the Plat (3 h) was 119.2 x10_4/uL. The RBC (3 h) was 595 x10_4/ul, the Ret (3 h) was 11.1% and the WBC (3 h) was 80.6 x10_2/uL. For the same compound, the KIDNEY_L (3 h) was 0.9 g, the KIDNEY_R (3 h) was 1 g and the KIDNEY_TOTAL (3 h) was 1.9 g. The LIVER (3 h) was 10.2 g, the A/G (3 h) was 2.1 and the ALP (3 h) was 1272 IU/L. For the same compound, the ALT (3 h) was 37.8 IU/L, the AST (3 h) was 66.8 IU/L and the BUN (3 h) was 12.2 mg/dL. It also gave a CRE (3 h) of 0.3 mg/dL, a Ca (3 h) of 11.1 mg/dL and a Cl (3 h) of 104.2 meq/L. For the same compound, the DBIL (3 h) was 0.01 mg/dL, the GLC (3 h) was 188.6 mg/dL and the IP (3 h) was 9.2 mg/dL. The K (3 h) was 4.8 meq/L, the LDH (3 h) was 104 IU/L and the Na (3 h) was 138.6 meq/L. For the same compound, the PL (3 h) was 149.4 mg/dL, the RALB (3 h) was 3.7 g/dL and the TBIL (3 h) was 0.042 mg/dL. The TC (3 h) was 82.6 mg/dL, the TG (3 h) was 81.6 mg/dL and the TP (3 h) was 5.5 g/dL. For the same compound, the gamma-GTP (3 h) was 0.8 IU/L, the TERMINAL_BW (6 h) was 204.5 g and the APTT (6 h) was 18 s. For the same compound, the Bas (6 h) was 0%, the Eos (6 h) was 1.2% and the Fbg (6 h) was 239 mg/dL. It also gave a Hb (6 h) of 12.9 g/dL, a Ht (6 h) of 39.7% and a Lym (6 h) of 75.6%. For the same compound, the MCH (6 h) was 21 pg, the MCHC (6 h) was 32.5% and the MCV (6 h) was 64.6 fL. For the same compound, the Mono (6 h) was 8.6%, the Neu (6 h) was 14.4% and the PT (6 h) was 12.6 s. The Plat (6 h) was 109.8 x10_4/uL, the RBC (6 h) was 616 x10_4/ul and the Ret (6 h) was 8.8%. It also gave a WBC (6 h) of 104 x10_2/uL, a KIDNEY_L (6 h) of 0.9 g and a KIDNEY_R (6 h) of 0.9 g. The KIDNEY_TOTAL (6 h) was 1.8 g, the LIVER (6 h) was 9.2 g and the A/G (6 h) was 2.1. It also gave an ALP (6 h) of 1325 IU/L, an ALT (6 h) of 32 IU/L and an AST (6 h) of 62 IU/L. It also gave a BUN (6 h) of 12 mg/dL, a CRE (6 h) of 0.4 mg/dL and a Ca (6 h) of 11.2 mg/dL. It also gave a Cl (6 h) of 105.2 meq/L, a DBIL (6 h) of 0.01 mg/dL and a GLC (6 h) of 199.2 mg/dL. The IP (6 h) was 10 mg/dL, the K (6 h) was 5 meq/L and the LDH (6 h) was 99.4 IU/L. The Na (6 h) was 137.8 meq/L, the PL (6 h) was 145.6 mg/dL and the RALB (6 h) was 3.7 g/dL. The TBIL (6 h) was 0.048 mg/dL, the TC (6 h) was 85.2 mg/dL and the TG (6 h) was 53.6 mg/dL. The TP (6 h) was 5.5 g/dL, the gamma-GTP (6 h) was 1 IU/L and the TERMINAL_BW (9 h) was 199.2 g. For the same compound, the APTT (9 h) was 16.6 s, the Bas (9 h) was 0% and the Eos (9 h) was 1.2%. For the same compound, the Fbg (9 h) was 230.8 mg/dL, the Hb (9 h) was 12.8 g/dL and the Ht (9 h) was 39.7%. For the same compound, the Lym (9 h) was 66.6%, the MCH (9 h) was 21.2 pg and the MCHC (9 h) was 32.2%. For the same compound, the MCV (9 h) was 65.8 fL, the Mono (9 h) was 14% and the Neu (9 h) was 18.2%. For the same compound, the PT (9 h) was 12.7 s, the Plat (9 h) was 119.2 x10_4/uL and the RBC (9 h) was 603.8 x10_4/ul. For the same compound, the Ret (9 h) was 9.5%, the WBC (9 h) was 99.4 x10_2/uL and the KIDNEY_L (9 h) was 0.9 g. For the same compound, the KIDNEY_R (9 h) was 0.9 g, the KIDNEY_TOTAL (9 h) was 1.8 g and the LIVER (9 h) was 8.5 g. For the same compound, the A/G (9 h) was 2.1, the ALP (9 h) was 1072.6 IU/L and the ALT (9 h) was 31 IU/L. The AST (9 h) was 62.2 IU/L, the BUN (9 h) was 11.6 mg/dL and the CRE (9 h) was 0.3 mg/dL. It also gave a Ca (9 h) of 10.8 mg/dL, a Cl (9 h) of 105.8 meq/L and a DBIL (9 h) of 0.012 mg/dL. It also gave a GLC (9 h) of 189.6 mg/dL, an IP (9 h) of 10.8 mg/dL and a K (9 h) of 5 meq/L. The LDH (9 h) was 88.8 IU/L, the Na (9 h) was 138.2 meq/L and the PL (9 h) was 140 mg/dL. The RALB (9 h) was 3.6 g/dL, the TBIL (9 h) was 0.046 mg/dL and the TC (9 h) was 82.2 mg/dL. The TG (9 h) was 52.4 mg/dL, the TP (9 h) was 5.3 g/dL and the gamma-GTP (9 h) was 0.6 IU/L. For the same compound, the TERMINAL_BW (24 h) was 222.1 g, the APTT (24 h) was 16.1 s and the Bas (24 h) was 0%. It also gave an Eos (24 h) of 1%, a Fbg (24 h) of 241.7 mg/dL and a Hb (24 h) of 12.7 g/dL. It also gave a Ht (24 h) of 39.6%, a Lym (24 h) of 75% and an MCH (24 h) of 21.3 pg. It also gave an MCHC (24 h) of 32.2%, an MCV (24 h) of 66 fL and a Mono (24 h) of 7.8%. The Neu (24 h) was 16.2%, the PT (24 h) was 12.1 s and the Plat (24 h) was 118 x10_4/uL. The RBC (24 h) was 599.6 x10_4/ul, the Ret (24 h) was 9.9% and the WBC (24 h) was 86.4 x10_2/uL. The KIDNEY_L (24 h) was 0.9 g, the KIDNEY_R (24 h) was 1 g and the KIDNEY_TOTAL (24 h) was 1.9 g. It also gave an LIVER (24 h) of 10.6 g, an A/G (24 h) of 2 and an ALP (24 h) of 1741.4 IU/L. The ALT (24 h) was 35.8 IU/L, the AST (24 h) was 65.2 IU/L and the BUN (24 h) was 16.4 mg/dL. It also gave a CRE (24 h) of 0.4 mg/dL, a Ca (24 h) of 11.2 mg/dL and a Cl (24 h) of 104.6 meq/L. It also gave a DBIL (24 h) of 0 mg/dL, a GLC (24 h) of 192.4 mg/dL and an IP (24 h) of 8.4 mg/dL. The K (24 h) was 5.3 meq/L, the LDH (24 h) was 138.4 IU/L and the Na (24 h) was 138.6 meq/L. The PL (24 h) was 156.2 mg/dL, the RALB (24 h) was 3.7 g/dL and the TBIL (24 h) was 0.016 mg/dL. The TC (24 h) was 82.2 mg/dL, the TG (24 h) was 125.2 mg/dL and the TP (24 h) was 5.5 g/dL. For the same compound, the gamma-GTP (24 h) was 1.2 IU/L.
